Reference: PMC11546719, “Immune Modulatory Profile of the Pateamines PatA and Des-Methyl Des-Amino PatA” (International Journal of Molecular Sciences, 2024)
Where two headings read alike, the source gives them in different places. Blank lines part the entries; values can stand above or below the compound they belong to.

Tests used:
[1] = test system: M1 MdMs; set-up: method as in PMID 36982945; conditions: M1 MdMs ref 11; cited from earlier work
[2] = test system: Human primary B cells; set-up: method as in PMID 36982945; conditions: summary table ref 11; cited from earlier work
[3] = test system: Human primary T cells; set-up: method as in PMID 36982945; conditions: summary table ref 11; cited from earlier work
[4] = test system: TK6 cells; experiment: Micronuclei assay; assay type: cell-based, human; conditions: 4 h incubation then 44 h
Description: The In-Vitro Micronuclei Plus assay (Becton Dickinson, Heidelberg, Germany) was performed as described by the supplier. Briefly, 2 × 10^4 TK6 cells were incubated with increasing concentrations of PatA, DMDA and silvestrol for 4 h. The cells were washed with PBS and incubated in fresh medium (without test substance) for 44 h. The cells were centrifuged (300× g) for 5 min, the […] and placed on ice for 20 min. Then, 50 µL of Complete Nucleic Acid Dye A Solution was added. The plate was placed on ice and exposed to visible light for 30 min. The Nucleic Acid Dye A solution was removed and the cells were washed with 0.15 mL of cold 1x Buffer Solution. An amount of 100 µL Complete Lysis Solution 1 was added, followed by gently mixing of the plate for 5 s and incubation of 1 h in the dark at 37 °C. Then, 100 µL Complete Lysis Solution 2 was added and incubated for 30 min in the dark at room temperature. The cells were analyzed via flow cytometry with the MACSQuant 10 (Miltenyi GmbH, Bergisch Gladbach, Germany).

[5] = test system: M1 MdMs; set-up: method as in PMID 36982945; conditions: summary table ref 11; cited from earlier work
[6] = test system: M2 MdMs; set-up: method as in PMID 36982945; conditions: summary table ref 11; cited from earlier work
[7] = test system: B cells; experiment: Energy metabolism (Seahorse OCR/ECAR) in B cells; assay type: cell-based, human; conditions: 5 days, PatA, DMDA 0.25-0.5 nM, silvestrol 5 nM, rapamycin 10 ng/mL
Description: (§1) The determination of the energy metabolism was performed as described previously. Briefly, for the analysis of the extracellular acidification rate (ECAR) and the oxygen consumption rate (OCR) for human B cells, Tcells, M1 MdMs and M2 MdMs, the Seahorse XFe96 FluxPak (Agilent, Waldbronn, Germany) was used as recommended by the manufacturer. MdMs were polarized to M1 or M2 MdMs in the presence of PatA (0.5, 2.5, 5 nM), DMDA (0.5, 2.5, 5 nM) or vehicle (DMSO) for 48 h or 24 h, respectively. T cells were activated in the presence of PatA (0.25, 0.5 nM), DMDA (0.25, 0.5 nM), silvestrol or DMSO. B cells were activated in the presence of PatA (0.25, 0.5 nM), DMDA (0.25, 0.5 nM), silvestrol (5 nM) or rapamycin (10 ng/mL positive control). Cells were washed with Seahorse XF RPMI medium pH 7.4 (Agilent, Waldbronn, Germany) and OCR and ECAR were measured as octuplicates for a period of 160 min using the Seahorse XFe96 Analyzer (Agilent, Waldbronn, Germany) and analyzed by Wave Software 2.6.3.8 (Agilent, Waldbronn, Germany). The relative values were calculated by relating the OCR or ECAR values obtained after 50 min to the values of the vehicle control (not stimulated).

[8] = test system: T cells; experiment: Energy metabolism (Seahorse OCR/ECAR) in T cells; assay type: cell-based, human; conditions: 5 days, PatA, DMDA 0.25-0.5 nM, silvestrol 5 nM
Description: as §1

[9] = test system: Human primary B cells; experiment: B cell activation with IL-21, sCD40L, CpG and anti-IgM; assay type: cell-based; conditions: activated B cells, 5 days
Description: B cells were activated as described by Khoenkhoen et al.. […].
Surface marker analysis was performed as described previously. Briefly, 1.5–2 × 10^5 cells of each sample were blocked with human FcR Blocking Reagent (15 min, 4 °C). […]. Afterwards, samples were stained with a mixture of different surface marker antibodies (15 min, 4 °C) and measured with MACSQuant® Analyzer 10 flow cytometer. For M1-/M2-MdMs anti-CD86, anti-CD14, anti-HLA-DR, anti-CD206, anti-CD80, anti-TREM2 and anti-CD163 were used. For T cells, anti-CD69, anti-CD54, anti-CD49a, anti-CD18, anti-CD134, anti-CD154, anti-CD3 and anti-CD25 were analyzed. For B cells, anti-CD27, anti-CD19 and anti-CD38 were applied. For T cell and B cell proliferation assay, freshly isolated T and B cells were stained with CTV and detected using flow cytometry. Naïve B cells were characterized as CD19^+CD27^lowCD38^med, memory B cells as CD19^+CD27^med CD38^low and plasma cells as CD27^+CD38^+ cells. M1 MdMs and M2 MdMs cell population was gated using FSC/SSC channel. T cells were gated as CD3^+CD25^+ positive cells. The geometric mean of the fluorescent intensity was calculated using FlowJo software v10 (Treestar, Ashland, […], USA). Fold induction of surface marker expression was calculated using the DMSO-treated cells as the control.
For determination of cytokine concentrations in the supernatant of humane immune cells, cytometric bead array (BD Biosciences, Heidelberg, Germany) for IL-10, IL-17, IL-8, IL-6, IFN-γ and CCL2 was used. For the detection of CCL18, CCL17, IgG, IgA and PGE2, an ELISA was performed. The cytometric bead arrays and the ELISAs were performed according to the protocol of the supplier.

[10] = test system: Caco-2 cell barrier; experiment: Transport assay, Caco-2 cell barrier; assay type: in vitro ADME
Description: (§2) The transport assay was achieved as described previously. Briefly, 1 × 10^5 CaCo-2 or 5 × 10^4 Calu-3 cells in 300 µL medium were seeded on 24-well ThinCerts (pre-coated with FCS for 60 min) and in the lower compartment, 1 mL culture medium per well was added. The Caco-2 cell barrier was generated over 20 days and the Calu-3 barrier was generated over 14 days. DMDA (0 nM, 5 nM, 50 nM, 100 nM), PatA (0 nM, 5 nM, 50 nM, 100 nM), 200 µM famotidine, 200 µM lucifer yellow or 200 µM carbamazepine diluted in medium was added to the apical compartment and incubated for 4 h or 24 h. The medium from the basolateral and apical compartment was collected and stored at −20 °C and analyzed using LC-MS/MS. To obtain the transport rate, the drug amount in the basolateral compartment at 4 h or 24 h was related to the drug amount in the apical compartment (0 h).
(§3) The detailed method for the analysis of DMDA, PatA, carbamazepine and famotidine using LC-MS/MS is described in the Supplementary Materials.

[11] = test system: Calu-3 cell barrier; experiment: Transport assay, Calu-3 cell barrier; assay type: in vitro ADME
Description: as §2, §3

[12] = 4 and 24 h, PatA, DMDA 5, 50, 100 nM, controls 200 µM

Compound: COC(=O)[C@H]1[C@@H](O)[C@@]2(O)c3c(OC)cc(O[C@@H]4O[C@@H]([C@H](O)CO)CO[C@H]4OC)cc3O[C@@]2(c2ccc(OC)cc2)[C@@H]1c1ccccc1 [Silvestrol, silvestrol]
Energy metabolism: glycolysis and oxidative phosphorylation [1]: reduced glycolysis and oxidative phosphorylation
Effect on the release of inflammatory markers, B Cells [2]: IgA↓, IgG↓
Effect on the release of inflammatory markers, T Cells [3]: IL-10↑, IFN-γ↑
Genotoxic potential: micronuclei (clastogenic) and hypodiploid cells (aneugenic) [4]: showed no genotoxic effects
Effect on the release of inflammatory markers, M1 MdM [5]: IL-6↓, IL-8↓, CCL2↓, TNF-α↑
Effect on the release of inflammatory markers, M2 MdM [6]: IL-8↓, CCL2↓,
Energy metabolism: glycolysis (ECAR) and oxidative phosphorylation (OCR) [7]: increased glycolysis and oxidative phosphorylation
Energy metabolism: glycolysis (ECAR) and oxidative phosphorylation (OCR) [8]: did not alter the energy metabolism

Compound: CO[C@H]1C[C@@H]2CC[C@@H](C)[C@@](O)(O2)C(=O)C(=O)N2CCCC[C@H]2C(=O)O[C@H]([C@H](C)C[C@@H]2CC[C@@H](O)[C@H](OC)C2)CC(=O)[C@H](C)/C=C(\C)[C@@H](O)[C@@H](OC)C(=O)[C@H](C)C[C@H](C)/C=C/C=C/C=C/1C [rapamycin, reference compound]
B cell activation (formation of plasma cells, proliferation, release of IgGs) [9]: prevented B cell activation
Cell viability (zombie staining) [9]: did not reduce cell viability

Permeability / transport rate across Caco-2 cell barrier (in words) ([10]; Caco-2): low permeability
Permeability / transport rate across Calu-3 cell barrier (in words) [11]: low permeability
Compound: lucifer yellow [reference compound]

Compound: COc1cc2c(c(OC)n1)[C@]1(O)[C@H](O)[C@H](CN(C)C)[C@@H](c3ccccc3)[C@]1(c1ccc(C#N)cc1)O2 [Zotatifin, zotatifin]
Effect on the release of inflammatory markers, B Cells [2]: IgA↓, IgG↓
Effect on the release of inflammatory markers, T Cells [3]: IL-10↓, IL-17↓, IFN-γ↓
Effect on the release of inflammatory markers, M1 MdM [5]: No effect
Effect on the release of inflammatory markers, M2 MdM [6]: IL-10↓, CCL18↓

Compound: COS(C)(=O)=O [methylmethansulfonat (MMS), methylmethansulfonat, reference compound]
Genotoxic potential: micronuclei (clastogenic) and hypodiploid cells (aneugenic) [4]: significant increase in micronuclei and hypodiploid cells

Compound: CONC(=O)[C@H]1[C@@H](O)[C@@]2(O)c3c(OC)cc(OC)cc3O[C@@]2(c2ccc(OC)cc2)[C@@H]1c1ccccc1 [CR31-B (-)]
Effect on the release of inflammatory markers, B Cells [2]: IgA↓, IgG↓
Effect on the release of inflammatory markers, T Cells [3]: IL-10↓, IL-17↓, IFN-γ↓
Effect on the release of inflammatory markers, M1 MdM [5]: IL-6↓, IL-8↓, CCL2↓, CCL18↓
Effect on the release of inflammatory markers, M2 MdM [6]: TNF-α↑, CCL2↓, CCL17↓, CCL18↓,

Permeability / transport rate across Caco-2 cell barrier (in words) [10, 12]: low permeability
Permeability / transport rate across Calu-3 cell barrier (in words) [11, 12]: low permeability
Compound: NC(N)=Nc1nc(CSCCC(N)=NS(N)(=O)=O)cs1 [famotidine, reference compound]

Permeability / transport rate across Caco-2 cell barrier (in words) [10, 12]: high
Permeability / transport rate across Calu-3 cell barrier (in words) [11, 12]: high
Compound: NC(=O)N1c2ccccc2C=Cc2ccccc21 [carbamazepine, reference compound]
